Source: patent US7727980B2, “Tricyclic androgen receptor modulator compounds and methods” (priority 2001, dated 2010)
Where two headings read alike, the source gives them in different places.

What was measured:
human AR [1] = biological target: T1, human AR (Homo sapiens, UniProt P10275); experiment: Co-transfection assay, AR antagonist activity in presence of DHT, CV-1 cells; type: cell-based; parameters: expressed in transfected cells; host or cells: CV-1 cells (African green monkey kidney fibroblasts), transient transfection with pRShAR; conditions: CV-1 cells; for IC50: antagonist potency or IC50, DHT at its EC50 concentration; for AR Antagonist CV-1 Cells Efficacy (%): percent maximal inhibition, DHT at its EC50 concentration
T1 sequence (P10275 1-920): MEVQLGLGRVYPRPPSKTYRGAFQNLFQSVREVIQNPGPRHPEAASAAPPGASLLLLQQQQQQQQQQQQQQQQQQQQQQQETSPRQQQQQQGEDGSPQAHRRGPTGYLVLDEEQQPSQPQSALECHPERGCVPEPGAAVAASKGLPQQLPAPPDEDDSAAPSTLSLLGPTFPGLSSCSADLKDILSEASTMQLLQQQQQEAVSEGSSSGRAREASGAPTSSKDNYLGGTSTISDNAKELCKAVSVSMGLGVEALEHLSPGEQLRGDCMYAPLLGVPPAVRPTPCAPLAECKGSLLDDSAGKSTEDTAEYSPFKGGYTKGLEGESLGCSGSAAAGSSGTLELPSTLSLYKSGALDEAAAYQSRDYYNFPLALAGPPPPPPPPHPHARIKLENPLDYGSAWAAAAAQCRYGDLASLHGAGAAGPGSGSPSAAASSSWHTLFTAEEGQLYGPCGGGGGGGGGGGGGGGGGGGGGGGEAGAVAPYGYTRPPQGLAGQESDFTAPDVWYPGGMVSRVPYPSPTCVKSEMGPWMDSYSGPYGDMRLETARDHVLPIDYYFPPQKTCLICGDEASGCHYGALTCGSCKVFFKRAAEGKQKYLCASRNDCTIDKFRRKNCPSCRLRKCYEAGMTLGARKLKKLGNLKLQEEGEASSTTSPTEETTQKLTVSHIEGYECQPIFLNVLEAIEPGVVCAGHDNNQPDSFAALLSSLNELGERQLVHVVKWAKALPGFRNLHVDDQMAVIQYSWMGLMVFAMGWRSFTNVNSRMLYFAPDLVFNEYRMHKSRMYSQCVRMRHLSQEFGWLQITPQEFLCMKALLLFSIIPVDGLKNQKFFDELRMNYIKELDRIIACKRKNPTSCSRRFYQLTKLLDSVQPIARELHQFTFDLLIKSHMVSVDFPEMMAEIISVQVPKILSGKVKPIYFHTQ
Description: (§1) The co-transfection assay provides a method for identifying functional agonists and partial agonists which mimic, or antagonists which inhibit, the effect of native hormones and quantifying their activity for responsive IR proteins. In this regard, the co-transfection assay mimics an in vivo system in the laboratory. Importantly, activity in the co-transfection assay correlates very well with known in vivo activity, such that the co-transfection assay functions as a qualitative and quantitative predictor of a tested compounds in vivo pharmacology. See, e.g., T. Berger et al. 41 J. Steroid Biochem. Molec.
(§2) In the co-transfection assay, a cloned cDNA for an IR (e.g., human PR, AR or GR) under the control of a constitutive promoter (e.g., the SV 40 promoter) is introduced by transfection (a procedure to induce cells to take up foreign genes) into a background cell substantially devoid of endogenous IRs. This introduced gene directs the recipient cells to make the IR protein of interest. A second gene is also introduced (co-transfected) into the same cells in conjunction with the IR gene. This second gene, comprising the cDNA for a reporter protein, such as firefly luciferase (LUC), controlled by an appropriate hormone responsive promoter containing a hormone response element (HRE). This reporter plasmid functions as a reporter for the transcription-modulating activity of the target IR. Thus, the reporter acts as a surrogate for the products (mRNA then protein) normally expressed by a gene under control of the target receptor and its native hormone.
(§3) The co-transfection assay can detect small molecule agonists or antagonists of target IRs. Exposing the transfected cells to an agonist ligand compound increases reporter activity in the transfected cells. This activity can be conveniently measured, e.g., by increasing luciferase production, which reflects compound-dependent, IR-mediated increases in reporter transcription. […] To detect antagonists, the co-transfection assay is carried out in the presence of a constant concentration of an agonist to the target IR (e.g., progesterone for PR) known to induce a defined reporter signal. Increasing concentrations of a suspected antagonist will decrease the reporter signal (e.g., luciferase production). The co-transfection assay is therefore useful to detect both agonists and antagonists of specific IRs. Furthermore, it determines not only whether a compound interacts with a particular IR, but whether this interaction mimics (agonizes) or blocks (antagonizes) the effects of the native regulatory molecules on target gene expression, as well as the specificity and strength of this interaction.
(§4) CV-1 cells (African green monkey kidney fibroblasts) were cultured in the presence of Dulbecco's Modified Eagle Medium (DMEM) supplemented with 10% charcoal resin-stripped fetal bovine serum then transferred to 96-well microtiter plates one day prior to transfection.
(§5) The reporter plasmid, MTV-LUC, contains the cDNA for firefly luciferase (LUC) under control of the mouse mammary tumor virus (MTV) long terminal repeat, a conditional promoter containing an androgen response element. See e.g., Berger et al. supra. In addition, pRS-β-Gal, coding for constitutive expression of E. coli β-galactosidase (β-Gal), was included as an internal control for evaluation of transfection efficiency and compound toxicity.
(§6) Six hours after transfection, media was removed and the cells were washed with phosphate-buffered saline (PBS). […] Three to four replicates were used for each sample. Transfections and subsequent procedures were performed on a Biomek 1000 automated laboratory work station.
(§7) After 40 hours, the cells were washed with PBS, lysed with a Triton X-100-based buffer and assayed for LUC and β-Gal activities using a luminometer or spectrophotometer, respectively. For each replicate, the normalized response (NR) was calculated as: LUC response/β-Gal rate • where β-Gal rate=β-Gal·1×10^−5/β-Gal incubation time.

human AR [2] = biological target: T1, human AR; experiment: AR whole cell competitive binding assay (3H-DHT), transfected COS-1 cells; parameters: expressed in transfected cells; transient transfection with pRShAR; conditions: COS-1 cells, 1 nM 3H-DHT, Cheng-Prusoff from IC50
Experimental: AR Binding: For the whole cell binding assay, COS-1 cells in 96-well microtiter plates containing DMEM-10% FBS were transfected as described above with the following plasmid DNA: pRShAR (2 ng/well), pRS-β-Gal (50 ng/well) and pGEM (48 ng/well). Six hours after transfection, media was removed, the cells were washed with PBS and fresh media was added. The next day, the media was changed to DMEM-serum free to remove any endogenous ligand that might be complexed with the receptor in the cells.
Three replicates were used for each sample. […] The remaining media was removed, the cells were washed three times with PBS to remove unbound ligand and cells were lysed with a Triton X-100-based buffer.
For the saturation analyses, the difference between the total binding and the nonspecific binding, normalized by the β-Gal rate, was defined as specific binding. […] The Ki values were determined by application of the Cheng-Prusoff equation to the IC50 values, where: […]
After correcting for non-specific binding, IC50 values were determined. […] The IC50 value was determined graphically from a log-logit plot of the data. The Ki values were determined by application of the Cheng-Prusoff equation to the IC50 values, the labeled ligand concentration and the Kd of the labeled ligand.

human AR [3] = biological target: T1, human AR; experiment: Co-transfection assay, AR agonist activity, CV-1 cells; type: cell-based; parameters: expressed in transfected cells; host or cells: CV-1 cells (African green monkey kidney fibroblasts), transient transfection with pRShAR; conditions: for AR Agonist CV-1 Cells Efficacy (%): percent maximal response relative to reference agonist DHT
Description: as §1, §2, §3, §4, §5, §6, §7

[4] = read-out: AR Antagonist CV-1 Cells Potency
[5] = agonist potency or EC50, read-out: AR Agonist CV-1 Cells Potency

## 5,6-Dimethyl-7-(2,2,2-trifluoroethyl)-4-trifluoromethyl-7H-pyrrolo[3,2-f]quinolin-2(1H)-one [Compound 150]
Human AR [1]; [4]
  IC50: > 10000 nM
Human AR [1]
  AR Antagonist CV-1 Cells Efficacy (%): na (na = not active (i.e. efficacy of <20 and potency of >10,000))
Human AR [2]; read-out: AR Binding Ki
  Ki: 4 nM
Human AR [3]; [5]
  EC50: 2.1 nM
Human AR [3]
  AR Agonist CV-1 Cells Efficacy (%): 95%

## 5-(2-Ethoxycarbonylethyl)-6-methyl-7-(2,2,2-trifluoroethyl)-4-trifluoromethyl-7H-pyrrolo[3,2-f]quinolin-2(1H)-one [Compound 162]
Human AR [1]; [4]
  IC50: > 10000 nM
Human AR [1]
  AR Antagonist CV-1 Cells Efficacy (%): na (na = not active (i.e. efficacy of <20 and potency of >10,000))
Human AR [2]; read-out: AR Binding Ki
  Ki: 113 nM
Human AR [3]; [5]
  EC50: 20 nM
Human AR [3]
  AR Agonist CV-1 Cells Efficacy (%): 71%

## 5-(4-Fluorophenyl)-6-methyl-7-(2,2,2-trifluoroethyl)-4-trifluoromethyl-7H-pyrrolo[3,2-f]quinolin-2(1H)-one [Compound 161]
Human AR [1]; [4]
  IC50: 10 nM
Human AR [1]
  AR Antagonist CV-1 Cells Efficacy (%): 66%
Human AR [2]; read-out: AR Binding Ki
  Ki: 30 nM
Human AR [3]; [5]
  EC50: 238 nM
Human AR [3]
  AR Agonist CV-1 Cells Efficacy (%): 27%

## 5-Allyl-6-methyl-4-trifluoromethyl-7H-pyrrolo[3,2-f]quinolin-2(1H)-one [Compound 114]
Human AR [1]; [4]
  IC50: 6.6 nM
Human AR [1]
  AR Antagonist CV-1 Cells Efficacy (%): 81%
Human AR [2]; read-out: AR Binding Ki
  Ki: 81 nM
Human AR [3]; [5]
  EC50: > 10000 nM
Human AR [3]
  AR Agonist CV-1 Cells Efficacy (%): na (na = not active (i.e. efficacy of <20 and potency of >10,000))

## 5-Ethyl-6-propyl-7-(2,2,2-trifluoroethyl)-4-trifluoromethyl-7H-pyrrolo[3,2-f]quinolin-2(1H)-one [Compound 155]
Human AR [1]; [4]
  IC50: > 10000 nM
Human AR [1]
  AR Antagonist CV-1 Cells Efficacy (%): na (na = not active (i.e. efficacy of <20 and potency of >10,000))
Human AR [2]; read-out: AR Binding Ki
  Ki: 7.4 nM
Human AR [3]; [5]
  EC50: 9.4 nM
Human AR [3]
  AR Agonist CV-1 Cells Efficacy (%): 59%

## 5-Isopropyl-6-methyl-4-trifluoromethyl-7H-pyrrolo[3,2-f]quinolin-2(1H)-one [Compound 113]
Human AR [1]; [4]
  IC50: 316 nM
Human AR [1]
  AR Antagonist CV-1 Cells Efficacy (%): 65%
Human AR [2]; read-out: AR Binding Ki
  Ki: 529 nM
Human AR [3]; [5]
  EC50: > 10000 nM
Human AR [3]
  AR Agonist CV-1 Cells Efficacy (%): na (na = not active (i.e. efficacy of <20 and potency of >10,000))

## 6-(1-Methoxyethyl)-5-methyl-7-(2,2,2-trifluoroethyl)-4-trifluoromethyl-7H-pyrrolo[3,2-f]quinolin-2(1H)-one [Compound 172]
Human AR [1]; [4]
  IC50: > 10000 nM
Human AR [1]
  AR Antagonist CV-1 Cells Efficacy (%): na (na = not active (i.e. efficacy of <20 and potency of >10,000))
Human AR [2]; read-out: AR Binding Ki
  Ki: 12 nM
Human AR [3]; [5]
  EC50: 19 nM
Human AR [3]
  AR Agonist CV-1 Cells Efficacy (%): 89%

## 6-Ethyl-5-methyl-7-(2,2,2-trifluoroethyl)-7H-pyrrolo[3,2-f]quinolin-2(1H)-one [Compound 151]
Human AR [1]; [4]
  IC50: 5.9 nM
Human AR [1]
  AR Antagonist CV-1 Cells Efficacy (%): 57%
Human AR [2]; read-out: AR Binding Ki
  Ki: 48 nM
Human AR [3]; [5]
  EC50: 120 nM
Human AR [3]
  AR Agonist CV-1 Cells Efficacy (%): 36%

## 6-Methyl-4-trifluoromethyl-7H-pyrrolo[3,2-f]quinolin-2(1H)-one [Compound 112]
Human AR [1]; [4]
  IC50: 10 nM
Human AR [1]
  AR Antagonist CV-1 Cells Efficacy (%): 75%
Human AR [2]; read-out: AR Binding Ki
  Ki: 119 nM
Human AR [3]; [5]
  EC50: > 10000 nM
Human AR [3]
  AR Agonist CV-1 Cells Efficacy (%): na (na = not active (i.e. efficacy of <20 and potency of >10,000))

## 6-Methyl-7-(2,2,2-trifluoroethyl)-4-trifluoromethyl-7H-pyrrolo[3,2-f]quinolin-2(1H)-one [Compound 152]
Human AR [1]; [4]
  IC50: > 10000 nM
Human AR [1]
  AR Antagonist CV-1 Cells Efficacy (%): na (na = not active (i.e. efficacy of <20 and potency of >10,000))
Human AR [2]; read-out: AR Binding Ki
  Ki: 67 nM
Human AR [3]; [5]
  EC50: 4.9 nM
Human AR [3]
  AR Agonist CV-1 Cells Efficacy (%): 74%

## O=c1cc(C(F)(F)F)c2c3c(ccc2[nH]1)N(CC(F)(F)F)C1CCCC31 (racemic) [Compound 119, (±)-4c,5,6,7,7a(cis),8-Hexahydro-8-(2,2,2-trifluoroethyl)-4-trifluoromethylcyclopentano-[g]pyrrolo[3,2-f]quinolin-2(1H)-one]
Human AR [1]; AR Antagonist CV-1 Cells Potency (nM)
  IC50: > 10000 nM
Human AR [1]
  AR Antagonist CV-1 Cells Efficacy (%): na (na = not active (i.e. efficacy of <20 and potency of >10,000))
Human AR [2]; AR Binding Ki (nM)
  Ki: 2.6 nM
Human AR [3]; AR Agonist CV-1 Cells Potency (nM), agonist potency or EC50
  EC50: 2.5 nM
Human AR [3]
  AR Agonist CV-1 Cells Efficacy (%): 94%
